The test system of one data set is D2 dopamine receptor. Briefly: D2 dopamine receptor binding in the striatum by quantitative autoradiography after juvenile methylphenidate. To be noted: 40 days of age, postnatal day 20-35. Format: in vivo, rats. On the procedure:
FIG. 7. In this study, rats were administered a dosage of 2 mg/kg methylphenidate either by osmotic minipump (continuous release) or twice daily by interperitoneal injection (intermittent) between the ages of postnatal day 20-35. D2 dopamine receptor binding was assessed in the striatum at 40 days of age using quantitative autoradiography (see Andersen et al., Synapse 37:167-169 (2000)).

The conditions of data set [1]: 0.5 mg/kg i.p., within 5 min, rats; cited from earlier work.
Another data set deals with Sprague-Dawley male rats. Briefly: rCBV by MRI with MION contrast after MPH challenge in adulthood. Format: in vivo. On the procedure: MRI was conducted in two groups of animals (MPH-treated or VEH treated; n=7) at approximately 60 days old. Functional changes in rCBV were determined by drug-induced alterations following paramagnetic contrast agent […] iron oxide nanocolloid (MION) in anesthetized treated subjects (Chen et al., 2001). All experiments were performed at 2 T or 4.7 T on a GE Omega CSI instrument (GE, Fremont, Calif., USA) using a home-built surface coil for transmit-receive and immobilization of the head using a rigid plastic head holder. All VEH/MPH subjects were matched for scanner strength to control for any possible differences due to magnet strength (Mandeville et al., Magn. Reson. Med., 52:1272-1281 (2004)). […]
According to standard methods, 20 baseline images were collected, followed by a 10 mg/kg injection of MION (an iron particle-based contrast agent that produces long-lasting intravascular contrast for T2* contrast measures) and an additional 20 baseline images. […] Images were measured serially with a temporal resolution of 2 min.
All functional images within each condition were registered onto the same standard brain template to facilitate comparisons between the experimental groups. Registration parameters were determined for each functional scan using a single full-brain image set that is the average of all baseline time points prior to drug injection. […]

Counter-ions that a name gives are not always drawn.

As to `COC(=O)C(c1ccccc1)C1CCCCN1` (stereo not drawn) [MPH, d,l-Methylphenidate HCl], the D2 receptor density result with D2 dopamine receptor (2 mg/kg by osmotic minipump (continuous release)) is given as “but not when administered by continuous release”; in the data set on D2 dopamine receptor (2 mg/kg twice daily by intraperitoneal injection (intermittent)), “reduced significantly”. In addition, in data set [1], the plasma levels is recorded as 36 ng/mL. Besides, the “rCBV change after MPH challenge in adulthood” value in the data set on Sprague-Dawley male rats (MPFCx, juvenile MPH 2 mg/kg twice daily P20-P35 vs VEH-treated, 2 mg/kg i.v. MPH challenge) was “significantly increased”. In addition, the “enduring effects of juvenile exposure on rCBV” value in the data set with Sprague-Dawley male rats (dorsolateral PFCx or caudate putamen, juvenile MPH exposure) is on record as “no significant enduring effects”.

(Values after patent publication US20110224256A1, “T[…] THE TREATMENT OF PSYCHIATRIC DISORDERS” (priority 2008, published 2011).)
